Measurements reported in patent publication US5602153A, “Method of using 1-arylheteroarylalkyl substituted-1H-1,2,4-triazole compounds for treatment of a giaucoma disorder” (G.D. Searle & Co., priority 1993, dated 1997).
Read-outs that look alike come from different tables or passages of the source.

Experiments:
[1] = system: pressor response to AII; test: Assay C: In Vivo Intragastric Pressor Assay Response for AII Antagonists; parameters: species or system rat (male Sprague-Dawley); conditions: 3 mg/kg i.g., rat, AII 30 ng/kg bolus; for inhibition in vivo at 3 mg/kg: po
Experimental: Assay C: In Vivo Intragastric Pressor Assay Response for AII Antagonists of the Invention
Male Sprague-Dawley rats weighing 225-300 grams were anesthetized with methohexital (30 mg/kg, i.p.) and catheters were implanted into the femoral artery and vein. The catheters were tunneled subcutaneously to exit dorsally, posterior to the head and between the scapulae. The catheters were filled with heparin (1000 units/ml of saline). The rats were returned to their cage and allowed regular rat chow and water ad libitum. After full recovery from surgery (3-4 days), rats were placed in Lucite holders and the arterial line was connected to a pressure transducer. Arterial pressure was recorded on a Gould polygraph (mmHg). Angiotensin II was administered as a 30 ng/kg bolus via the venous catheter delivered in a 50 μl volume with a 0.2 ml saline flush. The pressor response in mmHg was measured by the difference from pre-injectionarterial pressure to the maximum pressure achieved. The AII injection was repeated every 10 minutes until three consecutive injections yielded responses within 4 mmHg of each other. These three responses were then averaged and represented the control response to AII. The test compound was suspended in 0.5% methylcellulose in water and was administered by gavage. The volume administered was 2 ml/kg body weight. The standard dose was 3 mg/kg. Angiotensin II bolus injections were given at 30, 45, 60, 75, 120, 150, and 180 minutes after gavage. The pressor response to AII was measured at each time point. The rats were then returned to their cage for future testing. A minimum of 3 days was allowed between tests. Percent inhibition was calculated for each time point following gavage by the following formula: [(Control Response-Response at time point)/Control Response]×100.

[2] = molecular target: smooth muscle angiotensin II receptor; test: Assay A: Angiotensin II Binding Activity (displacement of 125I-AII, rat uterine membrane preparation); conditions: rat uterine membranes, 25 °C, 60 min; read-out: IC50 (50% displacement of total specifically bound 125I-AII)
Experimental: Assay A: Anaiotensin II Binding Activity
Compounds of the invention were tested for ability to bind to the smooth muscle angiotensin II receptor using a rat uterine membrane preparation. Angiotensin II (AII) was purchased from Peninsula Labs. ^125 I-angiotensin II (specific activity of 2200 Ci/mmol) was purchased from Du Pont-New England Nuclear. Other chemicals were obtained from Sigma Chemical Co. This assay was carried out according to the method of Douglas et al [Endocrinology, 106, 120-124 (1980)]. Rat uterine membranes were prepared from fresh tissue. All procedures were carried out at 4° C. Uteri were stripped of fat and homogenized in phosphate-buffered saline at pH 7.4 containing 5 mM EDTA. The homogenate was centrifuged at 1500×g for 20 min., and the supernatant was recentrifuged at 100,000×g for 60 min. The pellet was resuspended in buffer consisting of 2 mM EDTA and 50 mM Tris-HCl (pH 7.5) to a final protein concentration of 4 mg/ml. Assay tubes were charged with 0.25 ml of a solution containing 5 mM MgCl2, 2 mM EDTA, 0.5% bovine serum albumin, 50 mM Tris-HCl, pH 7.5 and ^125 I-AII (approximately 10^5 cpm) in the absence or in the presence of unlabelled ligand. The reaction was initiated by the addition of membrane protein and the mixture was incubated at 25° C. for 60 min. The incubation was terminated with ice-cold 50 mM Tris-HDl (pH 7.5) and the mixture was filtered to separate membrane-bound labelled peptide from the free ligand. The incubation tube and filter were washed with ice-cold buffer. Filters were assayed for radioactivity in a Micromedic gamma counter. Nonspecific binding was defined as binding in the presence of 10 μM of unlabelled AII. Specific binding was calculated as total binding minus nonspecific binding. The receptor binding affinity of an AII antagonist compound was indicated by the concentration (IC50) of the tested AII antagonist which gives 50% displacement of the total specifically bound ^125 I-AII from the high affinity AII receptor. Binding data were analyzed by a nonlinear least-squares curve fitting program.

[3] = molecular target: T1, rabbit aortic rings (Oryctolagus cuniculus, UniProt P34976); test: Assay B: In Vitro Vascular Smooth Muscle-Response for AII (antagonist activity in rabbit aortic rings); format: cell-based, rabbit (male New Zealand white); conditions: antagonist 10^-5 M for 5 min, AII challenge
T1 construct: The thoracic aorta was removed, cleaned of adherent fat and connective tissue; from tissue; host or cells: thoracic aorta rings, endothelium removed, male New Zealand white rabbit
T1 sequence (P34976 1-359): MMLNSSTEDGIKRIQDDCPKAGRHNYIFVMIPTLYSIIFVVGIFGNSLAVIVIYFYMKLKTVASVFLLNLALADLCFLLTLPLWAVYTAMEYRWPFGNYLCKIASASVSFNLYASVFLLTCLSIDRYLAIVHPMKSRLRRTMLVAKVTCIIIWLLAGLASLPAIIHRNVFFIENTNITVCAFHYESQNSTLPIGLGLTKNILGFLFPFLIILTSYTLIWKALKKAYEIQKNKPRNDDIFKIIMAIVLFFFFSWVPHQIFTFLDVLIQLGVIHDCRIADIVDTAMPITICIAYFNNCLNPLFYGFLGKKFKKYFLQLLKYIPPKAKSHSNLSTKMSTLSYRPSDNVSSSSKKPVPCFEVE
Experimental: Assay B: In Vitro Vascular Smooth Muscle-Response for AII The compounds of the invention were tested for antagonist activity in rabbit aortic rings. Male New Zealand white rabbits (2-2.5 kg) were sacrificed using an overdose of pentobarbital and exsanguinated via the carotid arteries. The thoracic aorta was removed, cleaned of adherent fat and connective tissue and then cut into 3-mm ring segments. The endothelium was removed from the rings by gently sliding a rolled-up piece of filter paper into the vessel lumen. The rings were then mounted in a water-jacketed tissue bath, maintained at 37° C., between moveable and fixed ends of a stainless steel wire with the moveable end attached to an FT03 Grass transducer coupled to a Model 7D Grass Polygraph for recording isometric force responses. The bath was filled with 20 ml of oxygenated (95% oxygen/5% carbon dioxide) Krebs solution of the following composition (mM): 130 NaCl, 15 NaHCO3, 15 KCl, 1.2 NaH2 PO4, 1.2 MgSO4, 2.5 CaCl2, and 11.4 glucose. The preparations were equilibrated for one hour before approximately one gram of passive tension was placed on the rings. Angiotensin II concentration-response curves were then recorded (3×10^-10 to 1×10^-5 M). Each concentration of AII was allowed to elicit its maximal contraction, and then AII was washed out repeatedly for 30 minutes before rechallenging with a higher concentration of AII. Aorta rings were exposed to the test antagonist at 10^-5 M for 5 minutes before challenging with AII. Adjacent segments of the same aorta ring were used for all concentration-response curves in the presence or absence of the test antagonist. The effectiveness of the test compound was expressed in terms of pA2 values and were calculated according to H.O. Schild [Br. J. Pharmacol. Chemother., 2, 189-206 (1947)]. The pA2 value is the concentration of the antagonist which increases the EC50 value for AII by a factor of two. Each test antagonist was evaluated in aorta rings from two rabbits.

[4] = system: angiotensin II receptor; conditions: cited from earlier work; for angiotensin II antagonist activity: binding experiments, functional assays and in vitro / in vivo tests
[5] = first of two rabbits, read-out: pA2 (first value) (converted)
[6] = second of two rabbits, read-out: pA2 (converted)

| IC50 [2] | Kb [3, 5] | Kb [3, 6] | SMILES | inhibition in vivo at 3 mg/kg [1] | Duration (of inhibition of AII pressor response) [1] | angiotensin II antagonist activity [4] | residual agonist activity [4] |
| --- | --- | --- | --- | --- | --- | --- | --- |
| 520 nM | – | – | CCCCc1nc(-c2ccccc2Cl)n(Cc2ccc(-c3ccccc3-c3nnn[nH]3)nc2)n1 [Example 30, 5-[2-[5-[[3-butyl-5-(2-chlorophenyl)-1H-1,2,4-triazol-1-yl)methyl]-2-pyridinyl]phenyl]-1H-tetrazole] | 0% | – | – | – |
| 43 nM | – | – | CCCCc1nc(CC(C)(C)C)n(Cc2ccc(-c3ccccc3-c3nnn[nH]3)nc2)n1 [Example 12, 5-[2-[5-[(3-butyl-5-neopentyl-1H-1,2,4-triazol-1-yl)methyl]-2-pyridinyl]phenyl]-1H-tetrazole] | 0% | – | – | – |
| 4.1 nM | 3.72 nM | 16.6 nM | CCCCc1nc(C(=O)N(C)C(C)(C)C)n(Cc2ccc(-c3ccccc3-c3nnn[nH]3)nc2)n1 [Example 18, 5-[2-[5-[[3-butyl-5-(N-methyl-N-tertbutylamido)-1H-1,2,4-triazol-1-yl)methyl]-2-pyridinyl]phenyl]-1H-tetrazole] | 30% | > 180 min | – | – |
| 20 nM | 20.9 nM | 31.6 nM | CCCCc1nc(C(F)(F)CCC)n(Cc2ccc(-c3ccccc3-c3nnn[nH]3)nc2)n1 [Example 10, 5-[2-[5-[[3-butyl-5-(1,1-difluorobutyl)-1H-1,2,4-triazol-1-yl)methyl]-2-pyridinyl]phenyl]-1H-tetrazole] | 10% | – | – | – |
| – | – | – | CCCCc1nc(Cl)c(CC(=O)O)n1Cc1ccccc1[N+](=O)[O-] [2-butyl-4-chloro-1-(2-nitrobenzyl)imidazole-5-acetic acid] | – | – | specific competitive angiotensin II antagonist activity | – |
| 12 nM | 24.5 nM | 34.7 nM | CCCCc1nc(C(=O)N(C)C(C)(C)C)nn1Cc1ccc(-c2ccccc2-c2nnn[nH]2)nc1 [Example 17, 5-[2-[5-[[3-(N-methyl-N-tertbutylamido)-5-butyl-1H-1,2,4-triazol-1-yl)methyl]-2-pyridinyl]phenyl]-1H-tetrazole] | 20% | > 180 min | – | – |
| 4.4 nM | – | – | CCCCc1nc(CC(C)(C)C)nn1Cc1ccc(-c2ccccc2-c2nnn[nH]2)nc1 [Example 11, 5-[2-[5-[[3-neopentyl-5-butyl-1H-1,2,4-triazol-1-yl)methyl]-2-pyridinyl]phenyl]-1H-tetrazole] | 20% | > 180 min | – | – |
| 25 nM | – | – | CCCCc1nc(-c2ccccc2Cl)nn1Cc1ccc(-c2ccccc2-c2nnn[nH]2)nc1 [Example 29, 5-[2-[5-[[3-(2-chlorophenyl)-5-butyl-1H-1,2,4-triazol-1-yl)methyl]-2-pyridinyl]phenyl]-1H-tetrazole] | 25% | > 180 min | – | – |
| 9.4 nM | 5.5 nM | 3.89 nM | CCCCc1nc(C(F)(F)CCC)nn1Cc1ccc(-c2ccccc2-c2nnn[nH]2)nc1 [Example 9, 5-[2-[5-[[3-(1,1-difluorobutyl)-5-butyl-1H-1,2,4-triazol-1-yl)methyl]-2-pyridinyl]phenyl]-1H-tetrazole] | 20% | 180 min | – | – |
| – | – | – | CNCC(=O)N[C@@H](CCCN=C(N)N)C(=O)N[C@H](C(=O)N[C@@H](Cc1ccc(O)cc1)C(=O)N[C@H](C(=O)N[C@@H](Cc1cnc[nH]1)C(=O)N1CCC[C@H]1C(=O)N[C@@H](C)C(=O)O)C(C)C)C(C)C [Saralasin] | – | – | – | significant residual agonist activity |
| – | – | – | CCCCc1nc(Cl)c(CC(=O)O)n1Cc1ccccc1Cl [2-n-butyl-4-chloro-1-(2-chlorobenzyl)imidazole-5-acetic acid] | – | – | specific competitive angiotensin II antagonist activity | – |
